Test results published in US20020133846A1, “Method for protecting plants” (priority 1996, published 2002).

Tests used:
Cercospora nicotianae = test: Action against Cercospora nicotianae on tobacco plants; format: in vivo
[1] = system: Colletotrichum lagenarium; test: Action against Colletotrichum lagenarium on Cucumis sativus L., foliar application; format: in vivo
[2] = system: Colletotrichum lagenarium; test: Action against Colletotrichum lagenarium on Cucumis sativus L., soil application; format: in vivo
Erysiphe graminis = test: Action against Erysiphe graminis on barley (residual-protective / systemic)
Procedure: Residual-protective action: Barley plants about 8 cm in height were sprayed to drip point with an aqueous spray mixture (max. 0.02 % active ingredient) and were dusted 3 to 4 days later with conidia of the fungus. The infected plants were stood in a greenhouse at 22°. Fungus infestation was generally evaluated 10 days after infection.
Systemic action: Barley plants about 8 cm in height were watered with an aqueous spray mixture (max. 0.002 % active ingredient, based on the volume of the soil). […] The plants were dusted with conidia of the fungus 3 to 4 days later. The infected plants were stood in a greenhouse at 22°. Fungus infestation was generally evaluated 10 days after infection.

CC(Cc1ccc(C(C)(C)C)cc1)CN1C[C@@H](C)O[C@@H](C)C1 (relative stereo) [fenpropimorph, cis-4-[3-(4-tert-butylphenyl)-2-methylpropyl]-2,6-dimethylmorpholine]
% action O (observed) (Cercospora nicotianae; Table 11, comp. II alone 2 kg a.i. per ha): 13% | % action O (observed) (Cercospora nicotianae; Table 11, comp. II alone 6 kg a.i. per ha): 23% | % action O (observed) (Cercospora nicotianae; Table 11, comp. II alone 10 kg a.i. per ha): 42%

CO/C=C(/C(=O)OC)c1ccccc1Oc1cc(Oc2ccccc2C#N)ncn1 [azoxystrobin, methyl-(E)-2-{2-[6-(2-cyanophenoxy)pyrimidin-4-yloxy]phenyl}-3-methoxyacrylate]
% action O (observed) ([1]; Table 4, comp. II alone 0.06 ppm): 5% | % action O (observed) ([1]; Table 4, comp. II alone 0.2 ppm): 9% | % action O (observed) ([1]; Table 4, comp. II alone 0.6 ppm): 12% | % action O (observed) ([1]; Table 4, comp. II alone 6 ppm): 17% | % action O (observed) ([1]; Table 7, comp. II alone 2 ppm): 18% | % action O (observed) ([1]; Table 7, comp. II alone 6 ppm): 75% | % action O (observed) ([2]; Table 5, comp. II alone 0.2 ppm): 0% | % action O (observed) ([2]; Table 5, comp. II alone 0.6 ppm): 9% | % action O (observed) ([2]; Table 5, comp. II alone 2 ppm): 28% | % action O (observed) ([2]; Table 5, comp. II alone 6 ppm): 66% | % action O (observed) ([2]; Table 8, comp. II alone 0.02 ppm): 1% | % action O (observed) ([2]; Table 8, comp. II alone 0.06 ppm): 5% | % action O (observed) ([2]; Table 8, comp. II alone 0.6 ppm): 27% | % action O (observed) ([2]; Table 8, comp. II alone 2 ppm): 61% | % action O (observed) ([2]; Table 8, comp. II alone 6 ppm): 93%

CO/N=C(/C(=O)OC)c1ccccc1COc1ccccc1C [cresoxime methyl, methyl-(E)-2-methoximino-2-[μ-(o-tolyloxy)-o-tolyl]acetate]
% action O (observed) ([1]; Table 6, comp. II alone 2 ppm): 0% | % action O (observed) ([1]; Table 6, comp. II alone 20 ppm): 41%

CC(C1CC1)C(O)(Cn1cncn1)c1ccc(Cl)cc1 (stereo not shown) [cyproconazol, μ-(4-chlorophenyl)-μ-(1-cyclopropylethyl)-1H-1,2,4-triazole-1-ethanol]
% action O (observed) (Cercospora nicotianae; Table 10, comp. II alone 2 ppm): 0% | % action O (observed) (Cercospora nicotianae; Table 10, comp. II alone 6 ppm): 0%

CC1COC(Cn2cncn2)(c2ccc(Oc3ccc(Cl)cc3)cc2Cl)O1 (stereo not shown) [difenoconazole, 1-{2-[2-chloro-4-(4-chlorophenoxy)phenyl]-4-methyl-1,3-dioxolan-2-ylmethy 1)-1H-1,2,4-triazole]
% action O (observed) (Cercospora nicotianae; Table 12, comp. II alone 0.6 kg a.i. per ha): 3% | % action O (observed) (Cercospora nicotianae; Table 12, comp. II alone 2 kg a.i. per ha): 23% | % action O (observed) (Cercospora nicotianae; Table 12, comp. II alone 6 kg a.i. per ha): 32%

CC1(C)CCC(Cc2ccc(Cl)cc2)C1(O)Cn1cncn1 (stereo not shown) [metconazol, 5-(4-chlorobenzyl)-2,2-dimethyl-1-(1H-1,2,4-triazol-1-ylmethyl)-cyclopentanol]
% action O (observed) (Erysiphe graminis; Table 1, comp. II alone 0.6 ppm): 10% | % action O (observed) (Erysiphe graminis; Table 1, comp. II alone 2 ppm): 40% | % action O (observed) (Erysiphe graminis; Table 1, comp. II alone 6 ppm): 51% | % action O (observed) (Erysiphe graminis; Table 1, comp. II alone 20 ppm): 65% | % action O (observed) (Erysiphe graminis; Table 3, comp. II alone 6 ppm): 17% | % action O (observed) (Erysiphe graminis; Table 3, comp. II alone 20 ppm): 33% | % action O (observed) (Erysiphe graminis; Table 3, comp. II alone 60 ppm): 50%

CC(C)(C)C(O)(CCc1ccc(Cl)cc1)Cn1cncn1 (stereo not shown) [tebuconazol, μ-[2-(4-chlorophenyl)ethyl]-μ-(1,1-dimethylethyl)-1H-1,2,4-triazole-1-ethanol]
% action O (observed) (Cercospora nicotianae; Table 9, comp. II alone 2 ppm): 0% | % action O (observed) (Cercospora nicotianae; Table 9, comp. II alone 6 ppm): 0%
